Reference: PubChem BioAssay (NCI)
Values joined by “and” are separate entries in the source; they are usually repeats but may differ in a detail not shown here. Equal values may be shown once.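 Dose response: 5 concentrations. Exposure: 48 h. Format: 96-well plates. Endpoint: linear interpolation; highest concentration if not reached. GI50 marks 50% less growth. TGI: concentration producing complete growth inhibition.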

Assays:
Test in all cases: NCI tumour cell line growth inhibition, 48 h
[1] = test system: SK-MEL-28 melanoma
[2] = test system: UACC-62 melanoma
[3] = test system: A498 renal
[4] = test system: RXF 393 renal
[5] = test system: MALME-3M melanoma
[6] = test system: MOLT-4 leukemia
[7] = test system: A549 NSCLC
[8] = test system: HT29 colon
[9] = test system: ACHN renal
[10] = test system: NCI/ADR-RES ovarian

CC1(c2ccc(F)cc2)C2C(=O)NC(=O)C1C(=O)NC2=O (centres undefined)
TGI [1]: > 100 µM
TGI [2]: > 100 µM
TGI [3]: > 100 µM
TGI [4]: > 100 µM
TGI [5]: > 100 µM
TGI [6]: > 100 µM
TGI [7]: > 100 µM
TGI [8]: > 100 µM
TGI [9]: > 100 µM

O=C(NC1CCC[C@H]1OC(=O)c1ccccc1)c1ccccc1 (some centres undefined)
TGI [1]: > 100 µM
TGI [2]: > 100 µM
TGI [3]: > 100 µM
TGI [4]: > 100 µM
TGI [5]: > 100 µM
TGI [6]: > 100 µM
TGI [7]: > 100 µM
TGI [8]: > 100 µM

CC1=CC(C)=N/C(=N/S(=O)(=O)c2cc(C)c(Cl)cc2SCc2ccccc2)NN1
GI50 [1]: > 100 µM
TGI [1]: > 100 µM
GI50 [2]: > 100 µM
TGI [2]: > 100 µM
GI50 [3]: > 100 µM
TGI [3]: > 100 µM
GI50 [5]: > 100 µM
TGI [5]: > 100 µM
GI50 [10]: > 100 µM
TGI [10]: > 100 µM
GI50 [6]: > 100 µM
TGI [6]: > 100 µM
GI50 [7]: > 100 µM
TGI [7]: > 100 µM
GI50 [8]: > 100 µM
TGI [8]: > 100 µM
GI50 [9]: > 100 µM
TGI [9]: > 100 µM

CCCCCCCCCC1CC(=O)OC2=C1C(=O)CCC2 (centres undefined)
TGI [1]: > 100 µM
TGI [2]: > 100 µM
TGI [4]: > 100 µM
TGI [5]: > 100 µM
TGI [6]: > 100 µM
TGI [7]: > 100 µM
TGI [8]: > 100 µM
TGI [9]: > 100 µM

CC1C(c2ccccc2)N(C)C(c2ccccc2)C(C)C1(O)c1ccccc1 (centres undefined)
TGI [1]: > 100 µM
TGI [2]: > 100 µM
TGI [3]: > 100 µM
TGI [4]: > 100 µM
TGI [5]: > 100 µM
TGI [6]: > 100 µM
TGI [7]: > 100 µM
TGI [8]: > 100 µM
TGI [9]: > 100 µM

Cc1nnc(N/N=C/c2ccc([N+](=O)[O-])o2)[nH]c1=O
GI50 [1]: 0.815 µM
TGI [1]: > 100 µM
GI50 [2]: 0.666 µM
TGI [2]: 7.75 µM
GI50 [3]: 0.756 µM
TGI [3]: 14.3 µM
GI50 [5]: 0.97 µM
TGI [5]: 4.3 µM
GI50 [10]: 1.75 µM
TGI [10]: > 100 µM
GI50 [6]: 0.833 µM
TGI [6]: > 100 µM
GI50 [7]: 2.57 µM
TGI [7]: > 49.5 µM
GI50 [8]: 3.63 µM
TGI [8]: > 100 µM
GI50 [9]: 0.603 µM
TGI [9]: 4.58 µM

Cc1cc(N(CCC#N)S(=O)(=O)c2ccccc2)ccc1C=Nc1ccc(C(=O)O)cc1
TGI [1]: 28.3 µM
TGI [2]: 37.1 µM
TGI [3]: 44.5 µM
TGI [4]: 6.72 µM
TGI [5]: 12 µM
TGI [6]: 13.8 µM
TGI [7]: 52.5 µM
TGI [8]: 45.6 µM
TGI [9]: > 33.2 µM

COc1cc(/C=C2\[C@@H]3NC(Cc4c(OC)c(C)c(OC)c(OC)c43)C(=O)N2Cc2ccccc2)c(OC)c(C)c1OC
TGI [1]: > 100 µM
TGI [2]: > 100 µM
TGI [3]: > 100 µM
TGI [4]: 72.8 µM
TGI [5]: 91.4 µM
TGI [6]: 94 µM
TGI [7]: > 100 µM
TGI [8]: 68.1 µM
TGI [9]: > 100 µM

O=C(Nc1ccc(Cl)c(Cl)c1)c1ccc(NC2=C(Cl)C(=O)N(Cc3ccccc3)C2=O)cc1
GI50 [1]: 21.2 µM
TGI [1]: 63.5 µM
GI50 [2]: 4.93 µM
TGI [2]: 17.7 µM
GI50 [3]: 17.6 µM
TGI [3]: 36.8 µM
GI50 [5]: 11.2 µM
TGI [5]: 24.8 µM
GI50 [10]: 5.04 µM
TGI [10]: 17 µM
GI50 [6]: 2.18 µM
TGI [6]: 5.02 µM
GI50 [7]: 11.9 µM
TGI [7]: 27.3 µM
GI50 [8]: 16.5 µM
TGI [8]: > 100 µM

CCCCCCCCCCCCCCNCC(OC)OC
TGI [1]: 30.4 µM
TGI [2]: 34.4 µM
TGI [3]: 35 µM
TGI [4]: 28.9 µM
TGI [5]: 35.3 µM
TGI [7]: 35.3 µM
TGI [8]: 14.3 µM
TGI [9]: 31.1 µM

CCO/C=C\C12CCCC1NC(c1ccccc1)(c1ccccc1)O2 (centres undefined)
TGI [1]: > 100 µM
TGI [2]: 53.4 µM
TGI [3]: > 100 µM
TGI [4]: 81.3 µM
TGI [5]: 54.3 µM
TGI [6]: 46 µM
TGI [7]: > 100 µM
TGI [8]: 57.8 µM
TGI [9]: 92.5 µM

CC1(C)CC(=O)C(CC2C(=O)CCCC2=O)C(=O)C1
TGI [1]: > 100 µM
TGI [2]: > 100 µM
TGI [3]: > 100 µM
TGI [4]: > 100 µM
TGI [5]: > 100 µM
TGI [6]: > 100 µM
TGI [7]: > 100 µM
TGI [8]: > 100 µM
TGI [9]: > 100 µM

COC(=O)[C@]1(C)CCC[C@@]2(C)C3=C(CC[C@H]12)C[C@@H](CC(OC(C)=O)OC(C)=O)[C@@H](C)C3
GI50 [1]: 11.5 µM
TGI [1]: 24.5 µM
GI50 [2]: 8.82 µM
TGI [2]: 19.4 µM
GI50 [3]: 11.5 µM
TGI [3]: 19.9 µM
GI50 [4]: 7.03 µM
TGI [4]: 16.1 µM
GI50 [10]: 8.95 µM
TGI [10]: 16.3 µM
GI50 [6]: 18.5 µM
TGI [6]: > 50 µM
GI50 [7]: 15.4 µM
TGI [7]: > 43.6 µM
GI50 [8]: 18 µM
TGI [8]: > 50 µM
GI50 [9]: 13.9 µM
TGI [9]: > 28.2 µM

COc1cc(C2c3cc4c(cc3[C@@H](NC3CCN(Cc5ccccc5)CC3)C3COC(=O)[C@H]23)OCO4)cc(OC)c1O (some centres undefined)
TGI [1]: 2.84 µM and 1.57 µM
GI50 [2]: 0.217 µM and 0.0359 µM
TGI [2]: 1.38 µM and 0.216 µM
TGI [3]: 0.498 µM
GI50 [4]: 0.185 µM and 0.399 µM
TGI [4]: 0.768 µM and 0.927 µM
GI50 [5]: 0.238 µM and 0.113 µM
TGI [5]: 1.6 µM and 1.11 µM
GI50 [6]: < 0.01 µM
TGI [6]: 0.0129 µM and 0.0258 µM
TGI [7]: 0.178 µM
TGI [8]: 1.93 µM and 0.41 µM

Nc1nc(N)c2c(ccc3c2ccn3Cc2cccc([N+](=O)[O-])c2)n1
GI50 [1]: 1.04 µM and 1.02 µM
TGI [1]: 2.36 µM and 2.2 µM
GI50 [2]: 0.0306 µM
TGI [2]: 1.39 µM
GI50 [3]: 0.166 µM and 0.224 µM
TGI [3]: 1.97 µM and 1.94 µM
GI50 [5]: 1.21 µM
TGI [5]: 2.81 µM
GI50 [10]: 0.0775 µM and 0.0835 µM
TGI [10]: 18.6 µM
GI50 [6]: 0.0704 µM and 0.0621 µM
TGI [6]: 2.49 µM
GI50 [7]: 0.00496 µM
TGI [7]: 1.57 µM
GI50 [9]: 0.0372 µM
TGI [9]: 1.74 µM

C[C@@H]1CC[C@@H]2[C@@H]1[C@H](OC(=O)/C=C/C1CCCCC1)[C@]1(C3CCCCC3)C[C@@H](OC(=O)CO)[C@@]2(C)O1
GI50 [1]: 15.1 µM
TGI [1]: 29.6 µM
GI50 [2]: 13.5 µM
TGI [2]: 26.8 µM
GI50 [3]: 0.0209 µM
TGI [3]: 0.0801 µM
GI50 [5]: 14.5 µM
TGI [5]: 28.9 µM
GI50 [10]: 0.579 µM
TGI [10]: 18.4 µM
GI50 [6]: 13.7 µM
TGI [6]: 31.3 µM
GI50 [7]: 14.2 µM
TGI [7]: 27.1 µM
GI50 [8]: 13.1 µM
TGI [8]: 26.7 µM

CCOC(=O)N1CCC(N=C2CSc3nnc(-c4cc(C(F)(F)F)cc(C(F)(F)F)c4)n3N2)CC1
GI50 [1]: 1.87 µM
TGI [1]: 3.75 µM
GI50 [2]: 1.64 µM
TGI [2]: 3.36 µM
GI50 [3]: 1.94 µM
TGI [3]: 5.52 µM
GI50 [4]: 1.57 µM
TGI [4]: 3.08 µM
GI50 [5]: 1.68 µM
TGI [5]: 3.31 µM
GI50 [10]: 2.58 µM
TGI [10]: 8.08 µM
GI50 [6]: 2.57 µM
TGI [6]: 5.31 µM
GI50 [8]: 1.97 µM
TGI [8]: 3.65 µM
GI50 [9]: 2.53 µM
TGI [9]: 5.99 µM

COc1ccc(N=NC2=C(O)CCC2=O)cc1
TGI [1]: > 100 µM
TGI [2]: 30.6 µM
TGI [3]: > 100 µM
TGI [4]: > 100 µM
TGI [5]: > 100 µM
TGI [6]: > 100 µM
TGI [7]: > 100 µM
TGI [8]: > 100 µM
TGI [9]: > 100 µM
